Data from publication PMC10023780, “Insights into membrane association of the SMP domain of extended synaptotagmin” (Nature Communications, 2023).
Substitutions are numbered along the chain they refer to.

Experiments:
E-Syt1cyto = biological target: T1, E-Syt1cyto (Homo sapiens, UniProt Q9BSJ8); assay: FRET dequenching lipid transfer between liposomes; assay type: biochemical; settings: Ca2+ present, His tag on DGS-NTA(Ni) ER-like donor liposomes, PM-like acceptors, pH 7.4; labelled compound
T1 construct: gene ESYT1; cytosolic region, residues 93-1104, N-terminal hairpin region replaced by His tag (pCMV6-AN-His)
T1 sequence (Q9BSJ8 93-1104): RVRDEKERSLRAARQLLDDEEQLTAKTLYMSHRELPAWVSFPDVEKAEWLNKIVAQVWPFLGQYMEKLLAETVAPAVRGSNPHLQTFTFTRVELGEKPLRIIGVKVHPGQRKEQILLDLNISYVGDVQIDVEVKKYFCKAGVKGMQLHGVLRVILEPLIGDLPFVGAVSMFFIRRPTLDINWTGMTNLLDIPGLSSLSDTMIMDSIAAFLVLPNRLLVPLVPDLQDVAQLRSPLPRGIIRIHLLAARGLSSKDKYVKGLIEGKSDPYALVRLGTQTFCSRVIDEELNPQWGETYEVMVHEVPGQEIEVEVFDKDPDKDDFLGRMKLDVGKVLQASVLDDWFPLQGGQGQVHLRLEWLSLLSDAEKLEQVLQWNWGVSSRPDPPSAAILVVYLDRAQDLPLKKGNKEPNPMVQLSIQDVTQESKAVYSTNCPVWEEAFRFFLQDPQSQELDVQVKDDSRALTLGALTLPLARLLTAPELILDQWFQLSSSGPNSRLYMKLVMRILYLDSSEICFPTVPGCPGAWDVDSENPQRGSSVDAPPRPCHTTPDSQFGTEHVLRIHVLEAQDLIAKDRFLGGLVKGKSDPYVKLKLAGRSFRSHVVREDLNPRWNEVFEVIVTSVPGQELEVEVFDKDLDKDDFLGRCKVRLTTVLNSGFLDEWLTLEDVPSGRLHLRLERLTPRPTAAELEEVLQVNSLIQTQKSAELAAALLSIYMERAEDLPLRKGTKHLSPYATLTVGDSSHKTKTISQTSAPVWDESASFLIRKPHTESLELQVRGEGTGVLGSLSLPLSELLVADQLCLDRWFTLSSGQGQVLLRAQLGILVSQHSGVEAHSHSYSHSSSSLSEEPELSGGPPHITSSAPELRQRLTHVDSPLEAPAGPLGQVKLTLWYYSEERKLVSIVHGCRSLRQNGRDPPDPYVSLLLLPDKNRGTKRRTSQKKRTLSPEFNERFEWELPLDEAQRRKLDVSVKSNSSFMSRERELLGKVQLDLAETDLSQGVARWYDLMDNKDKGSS

SMP-C2AB of E-Syt1 [1] = biological target: T2, SMP-C2AB of E-Syt1 (Homo sapiens, UniProt Q9BSJ8, K227E); assay: native PAGE, NBD fluorescence of protein band; assay type: binding; settings: protein 40 uM, 4 °C, 1 h; solubilized NBD-PE added in methanol; labelled compound
T2 construct: gene ESYT1; SMP-C2A-C2B fragment, residues 93-634, His-tagged (pCMV6-AN-His), Expi293 cells, Ni-NTA and gel filtration
T2 sequence (Q9BSJ8 93-634 K227E): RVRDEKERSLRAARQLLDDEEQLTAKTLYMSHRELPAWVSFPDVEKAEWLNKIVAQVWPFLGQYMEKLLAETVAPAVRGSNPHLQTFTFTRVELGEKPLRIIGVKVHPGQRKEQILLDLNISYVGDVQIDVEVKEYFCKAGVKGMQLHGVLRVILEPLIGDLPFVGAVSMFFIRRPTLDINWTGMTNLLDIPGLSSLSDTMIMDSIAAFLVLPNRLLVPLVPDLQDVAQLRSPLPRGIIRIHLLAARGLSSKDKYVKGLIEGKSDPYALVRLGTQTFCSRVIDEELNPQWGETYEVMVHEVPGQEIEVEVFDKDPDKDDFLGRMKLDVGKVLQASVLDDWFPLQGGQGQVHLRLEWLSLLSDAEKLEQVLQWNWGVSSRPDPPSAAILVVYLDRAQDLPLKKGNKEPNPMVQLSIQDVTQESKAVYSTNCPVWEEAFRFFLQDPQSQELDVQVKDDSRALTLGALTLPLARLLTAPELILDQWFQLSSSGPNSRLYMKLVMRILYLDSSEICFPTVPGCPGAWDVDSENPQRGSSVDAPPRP

SMP-C2AB of E-Syt1 [2] = biological target: T3, SMP-C2AB of E-Syt1 (Homo sapiens, UniProt Q9BSJ8); assay: native PAGE, NBD fluorescence of protein band; assay type: binding; settings: protein 40 uM, 4 °C, 1 h; solubilized NBD-PE added in methanol; labelled compound
T3 construct: gene ESYT1; SMP-C2A-C2B fragment, residues 93-634, His-tagged (pCMV6-AN-His), Expi293 cells, Ni-NTA and gel filtration
T3 sequence (Q9BSJ8 93-634): T2 sequence (Q9BSJ8 93-634 K227E) with E135K

SMP-C2AB of E-Syt1 [3] = biological target: T4, SMP-C2AB of E-Syt1 (Homo sapiens, UniProt Q9BSJ8, V169W/L308W); assay: native PAGE, NBD fluorescence of protein band; assay type: binding; settings: protein 40 uM, 4 °C, 1 h; solubilized NBD-PE added in methanol; lipid cavity blocked; labelled compound
T4 construct: gene ESYT1; SMP-C2A-C2B fragment, residues 93-634, His-tagged (pCMV6-AN-His), Expi293 cells, Ni-NTA and gel filtration
T4 sequence (Q9BSJ8 93-634 V169W/L308W): T2 sequence (Q9BSJ8 93-634 K227E) with V77W, E135K, L216W

SMP of E-Syt3 = biological target: T5, SMP of E-Syt3 (Homo sapiens, UniProt A0FGR9); assay: FRET dequenching lipid transfer between liposomes; assay type: biochemical; settings: curved ER-like donor and PM-like acceptor liposomes, pH 7.4; labelled compound
T5 construct: gene ESYT3; SMP domain alone, residues 113-304, His tag (pET-28a); full-length protein 886 residues
T5 sequence (A0FGR9 113-304): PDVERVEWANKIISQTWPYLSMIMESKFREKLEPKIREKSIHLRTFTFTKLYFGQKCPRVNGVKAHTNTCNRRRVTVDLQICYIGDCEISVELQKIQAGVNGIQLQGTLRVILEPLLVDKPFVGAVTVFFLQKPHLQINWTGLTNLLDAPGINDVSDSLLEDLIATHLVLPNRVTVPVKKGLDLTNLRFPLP

SMP of E-Syt2 = biological target: T6, SMP of E-Syt2 (Homo sapiens, UniProt A0FGR8); assay: FRET dequenching lipid transfer between liposomes; assay type: biochemical; settings: curved ER-like donor and PM-like acceptor liposomes, pH 7.4; labelled compound
T6 construct: gene ESYT2; SMP domain alone, residues 162-355, His tag (pET-28a), dimer
T6 sequence (A0FGR8 162-355 isoform A0FGR8-2): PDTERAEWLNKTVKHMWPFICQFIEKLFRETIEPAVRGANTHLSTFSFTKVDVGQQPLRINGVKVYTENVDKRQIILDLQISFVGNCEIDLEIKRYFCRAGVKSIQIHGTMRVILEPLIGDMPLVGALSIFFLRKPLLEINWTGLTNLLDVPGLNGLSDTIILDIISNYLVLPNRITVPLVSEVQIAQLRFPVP

[4] = biological target: T7, SMP domain of E-Syt1 (SMP) (Homo sapiens, UniProt Q9BSJ8); assay: FRET dequenching lipid transfer between liposomes; assay type: biochemical; settings: 40-nm sorted ER-like donor and 800-nm PM-like acceptor liposomes, pH 7.4, 37 °C, Ca2+ not needed; Rhodamine-PE co-transferred; labelled compound
T7 construct: gene ESYT1; SMP domain alone, residues 134-327, N-terminal His tag (pET-28a), dimer
T7 sequence (Q9BSJ8 134-327): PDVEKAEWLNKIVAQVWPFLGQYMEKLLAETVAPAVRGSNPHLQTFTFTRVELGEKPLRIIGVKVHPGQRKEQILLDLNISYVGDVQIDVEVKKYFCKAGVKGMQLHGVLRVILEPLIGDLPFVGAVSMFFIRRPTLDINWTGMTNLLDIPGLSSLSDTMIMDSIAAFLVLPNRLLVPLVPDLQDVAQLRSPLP

full-length E-Syt1 = biological target: T8, full-length E-Syt1 (Homo sapiens, UniProt Q9BSJ8); assay: FRET dequenching lipid transfer from proteoliposomes; assay type: biochemical; settings: Ca2+ present, 40-nm sorted ER-like proteoliposomes, 800-nm PM-like acceptors, pH 7.4, room temperature; labelled compound
T8 construct: gene ESYT1; full length, residues 1-1104, His-tagged (pCMV6-AN-His), Expi293 cells, detergent-purified, reconstituted in ER-like liposomes
T8 sequence (Q9BSJ8 1-1104): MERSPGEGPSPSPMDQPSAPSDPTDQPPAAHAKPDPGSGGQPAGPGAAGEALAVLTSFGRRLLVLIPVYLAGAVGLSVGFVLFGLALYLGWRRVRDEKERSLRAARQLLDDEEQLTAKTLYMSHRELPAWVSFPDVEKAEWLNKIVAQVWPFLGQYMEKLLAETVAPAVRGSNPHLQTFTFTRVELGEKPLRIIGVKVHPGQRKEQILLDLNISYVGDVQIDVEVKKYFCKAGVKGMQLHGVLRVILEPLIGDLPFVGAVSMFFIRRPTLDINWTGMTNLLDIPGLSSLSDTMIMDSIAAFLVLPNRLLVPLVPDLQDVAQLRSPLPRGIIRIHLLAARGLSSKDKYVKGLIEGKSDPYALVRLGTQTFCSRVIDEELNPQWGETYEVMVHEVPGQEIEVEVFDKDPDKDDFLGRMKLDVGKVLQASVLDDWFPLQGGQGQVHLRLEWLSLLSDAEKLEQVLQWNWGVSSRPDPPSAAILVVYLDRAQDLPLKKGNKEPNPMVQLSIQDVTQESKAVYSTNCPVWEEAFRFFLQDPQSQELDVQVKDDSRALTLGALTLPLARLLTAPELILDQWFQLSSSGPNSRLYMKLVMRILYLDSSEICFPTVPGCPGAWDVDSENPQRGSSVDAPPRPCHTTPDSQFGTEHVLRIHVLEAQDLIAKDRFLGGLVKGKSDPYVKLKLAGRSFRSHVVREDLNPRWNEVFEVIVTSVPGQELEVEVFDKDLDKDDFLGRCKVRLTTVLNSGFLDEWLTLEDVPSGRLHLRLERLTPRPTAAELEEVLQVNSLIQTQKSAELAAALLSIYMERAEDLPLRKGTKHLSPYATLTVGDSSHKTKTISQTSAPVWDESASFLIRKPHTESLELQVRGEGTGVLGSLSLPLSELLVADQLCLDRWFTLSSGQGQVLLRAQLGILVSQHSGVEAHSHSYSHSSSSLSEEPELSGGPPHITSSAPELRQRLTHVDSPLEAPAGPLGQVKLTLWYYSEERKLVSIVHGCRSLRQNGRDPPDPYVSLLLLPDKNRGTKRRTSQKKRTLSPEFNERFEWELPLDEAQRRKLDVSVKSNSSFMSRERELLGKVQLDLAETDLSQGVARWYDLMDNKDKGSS

Compound: CCCCCCCC/C=C\CCCCCCCC(=O)OC[C@H](COP(=O)(O)OCCNc1ccc([N+](=O)[O-])c2nonc12)OC(=O)CCCCCCC/C=C\CCCCCCCC [NBD-PE, 1,2-dioleoyl-sn-glycero-3-phosphoethanolamine-N-(7-nitro-2-1,3-benzoxadiazol-4-yl)]
- FRET dequenching lipid transfer between liposomes (E-Syt1cyto): purified His-tagged E-Syt1cyto had comparable lipid transfer and membrane tethering levels as full-length E-Syt1
- native PAGE, NBD fluorescence of protein band (SMP-C2AB of E-Syt1 [1]): NBD-PE was loaded onto purified WT protein and K227E mutant at a similar level
- native PAGE, NBD fluorescence of protein band (SMP-C2AB of E-Syt1 [2]): solubilized NBD-PE was loaded onto purified WT protein and K227E mutant
- native PAGE, NBD fluorescence of protein band (SMP-C2AB of E-Syt1 [3]): block the hydrophobic cavity of the SMP domain (V169W/L308W) impaired lipid harboring
- FRET dequenching lipid transfer between liposomes (SMP of E-Syt3): SMP domains of E-Syt2 and E-Syt3 showed similar membrane curvature- and charge-facilitated lipid transfer
- FRET dequenching lipid transfer between liposomes (SMP of E-Syt2): SMP domains of E-Syt2 and E-Syt3 showed similar membrane curvature- and charge-facilitated lipid transfer
- FRET dequenching lipid transfer between liposomes [4]: 40-nm sorted ER-like liposomes produced a robust lipid transfer level
- FRET dequenching lipid transfer from proteoliposomes (full-length E-Syt1): 40-nm sorted ER-like proteoliposomes dramatically accelerated the lipid transfer by E-Syt1
